Experimental findings from patent US6608086B2, “Dihydropyridines and new uses thereof” (Synaptic Pharmaceutical Corporation, priority 1993, dated 2003) are described below.

Where a name gives a salt, the structure may show the parent alone.

One may read the melting point as the temperature, or range, at which the solid turns liquid.

The target of data set [1] is T1, α1A Human Adrenergic Receptor (Homo sapiens, UniProt P25100).
T1 construct: The entire coding region of α1A (1719 bp); expressed in transfected cells
T1 sequence (P25100 1-572): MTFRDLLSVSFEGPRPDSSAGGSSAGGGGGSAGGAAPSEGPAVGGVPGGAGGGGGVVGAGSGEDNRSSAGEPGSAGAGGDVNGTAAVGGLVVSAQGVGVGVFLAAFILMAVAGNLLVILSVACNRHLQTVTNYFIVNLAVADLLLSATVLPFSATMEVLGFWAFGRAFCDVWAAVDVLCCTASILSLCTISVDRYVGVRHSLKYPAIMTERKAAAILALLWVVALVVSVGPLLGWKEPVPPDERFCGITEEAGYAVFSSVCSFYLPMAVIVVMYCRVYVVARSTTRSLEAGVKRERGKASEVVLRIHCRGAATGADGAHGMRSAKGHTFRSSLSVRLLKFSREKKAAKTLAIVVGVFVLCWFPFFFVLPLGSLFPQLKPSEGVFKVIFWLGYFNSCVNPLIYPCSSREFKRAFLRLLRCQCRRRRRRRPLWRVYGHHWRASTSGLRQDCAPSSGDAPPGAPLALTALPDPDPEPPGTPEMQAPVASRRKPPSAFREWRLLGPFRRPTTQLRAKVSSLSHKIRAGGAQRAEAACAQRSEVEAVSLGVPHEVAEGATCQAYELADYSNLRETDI
Kind of data set: Radioligand binding, [3H]prazosin, cloned human α1A adrenergic receptor. The conditions noted are these: [3H]prazosin, cloned human receptor, LM(tk-) cell membranes; mean; read-out: PKi alpha-1 1a (converted). As for the experimental part: The protocols for these experiments are given below.
These cell lines were prepared by transfecting the cloned cDNA or cloned genomic DNA or constructs containing both genomic DNA and cDNA encoding the human α-adrenergic receptors as follows:
α1A Human Adrenergic Receptor:
The cells were grown, in a controlled environment (37° C., 5% CO2), as monolayers in Dulbecco's modified Eagle's Medium (GIBCO, Grand Island, N.Y.) containing 25 mM glucose and supplemented with 10% bovine calf serum, 100 units/ml penicillin g, and 100 μg/ml streptomycin sulfate.
Radioligand Binding Assays:
Transfected cells from culture flasks were scraped into 5 ml of 5 mM Tris-HCl, 5 mM EDTA, pH 7.5, and lysed by sonication. The cell lysates were centrifuged at 1000 rpm for 5 min at 4° C., and the supernatant was centrifuged at 30,000× g for 20 min at 4° C. The pellet was suspended in 50 mM Tris-HCl, 1 mM MgCl2, and 0.1% ascorbic acid at pH 7.5. Binding of the α1 antagonist [^3H]prazosin (0.5 nM, specific activity 76.2 Ci/mmol) to membrane preparations of LM(tk−) cells was done in a final volume of 0.25 ml and incubated at 37° C. for 20 min. Nonspecific binding was determined in the presence of 10 μM phentolamine. The reaction was stopped by filtration through GF/B filters using a cell harvester.

Take `COC(=O)C1(c2ccccc2)CCN(CCCNC(=O)C2=C(C)NC(C)=C(C(=O)OCCC#N)C2c2ccc([N+](=O)[O-])cc2)CC1` (centres unmarked) [Example 203, 5-(2-Cyanoethoxycarbonyl)-1,4-dihydro-2,6-dimethyl-3-{N-[3-(4-methoxycarbonyl-4-phenylpiperidin-1-yl)propyl]}carbo xamido-4-(4-nitrophenyl)pyridine]: the melting point lay within 73 to 74 °C. The Ki in data set [1] was 0.759 µM.

For `CCC1=C(C(=O)NCCCN2CCC(c3ccccc3)(c3ccccc3)CC2)C(c2ccc([N+](=O)[O-])cc2)C(C(N)=O)=C(C)N1` (centres unmarked) (as salt: hydrochloride) [Example 81, 5-carboxamido-2-ethyl-1,4-dihydro-6-methyl-4-(4-nitro)phenyl-3-(N-(3-(4,4-diphenylpiperidin-1-yl)propyl))carboxamidopyridine hydrochloride], the melting point was 243 to 248 °C (dec.).

For `CCC1=C(C(N)=O)C(c2ccc([N+](=O)[O-])cc2)C(C(=O)NCCCN2CCC3(CC2)C(=O)NCN3c2ccccc2)=C(CC)N1` (centres unmarked) (as salt: hydrochloride) (hydrate or solvate) [Example 105, 5-Carboxamido-2,6-diethyl-1,4-dihydro-4-(4-nitrophenyl)-3-{N-[3-(1-phenyl-4-oxo-1,3,8-triazaspiro[4.3]decan-8-yl)propyl]}carboxamidopyridine hydrochloride hydrate], the melting point was 187 °C (dec.).

Take `CC1=C(C#N)C(c2ccc([N+](=O)[O-])cc2)C(C(=O)NCCCN2CCC(c3ccccc3)(c3ccccc3)CC2)=C(C)N1` (centres unmarked) (as salt: hydrochloride) [Example 37]: the melting point was 252 °C (dec.).

Consider `COC(=O)C1=C(C)NC(C)=C(C(=O)NCCN2CCC(c3ccccc3)(c3ccccc3)CC2)C1c1ccc([N+](=O)[O-])cc1` (centres unmarked) (as salt: hydrochloride) (hydrate or solvate) [Example 52, 1,4-Dihydro-3-methoxycarbonyl-2,6-dimethyl-4-(4-nitrophenyl)-5-{N-[2-(4,4-diphenylpiperidin-1-yl)ethyl]}carboxamidopyridine hydrochloride hemihydrate], for which the melting point is 170 to 171 °C.

On to `CCOC(=O)C1=C(CC(=O)NCCCN2CCC(c3ccccc3)(c3ccccc3)CC2)NC(C)=C(C(=O)OC)C1c1ccc([N+](=O)[O-])cc1` (centres unmarked) (as salt: fumarate) [Example 89, 3-Ethoxycarbonyl-1,4-dihydro-5-methoxycarbonyl-6-methyl-4-(4-nitro)phenyl-2-(N-(3-(4,4,-diphenylpiperidin-1-yl)propyl)carboxamido)methylpyridine, fumarate salt], for which the melting point is 134 to 137 °C.

With `COC(=O)C1=C(C)NC(C)=C(C(=O)OCCCN2CCC(c3ccccc3)CC2)C1c1ccc([N+](=O)[O-])cc1` (centres unmarked) (as salt: hydrochloride) (hydrate or solvate) [Example 48, 1,4-Dihydro-5-methazycarbonyl-2,6-dimethyl-4-(4-nitrophenyl)-3-[3-(4-phenylpiperidin-1-yl)propoxy]}carbonylpyridine hydrochloride hydrate], the melting point lay within 139 to 140 °C.

As to `COC(=O)C1=C(C)NC(c2ccccc2)=C(C(=O)NCCCN2CCC(c3ccccc3)(c3ccccc3)CC2)C1c1ccc([N+](=O)[O-])cc1` (centres unmarked) (as salt: hydrochloride) (hydrate or solvate) [Example 78, 1,4-Dihydro-5-methoxycarbonyl-6-methyl-4-(4-nitro)phenyl-2-phenyl-3-(N-(3-(4,4-diphenylpiperidin-1-yl)propyl))carboxamidopyridine hydrochloride hydrate], the melting point is 210 to 215 °C (dec.).

For the compound `CCC1=C(C(=O)NCCCN2CCC(c3ccccc3)CC2)C(c2ccc([N+](=O)[O-])cc2)C(C(=O)OC)=C(C)N1` (centres unmarked) (as salt: hydrochloride) (hydrate or solvate) [Example 74, 2-Ethyl-1,4-dihydro-5-methoxycarbonyl-6-methyl-4-(4-nitro)phenyl-3-(N-(3-(4-phenylpiperidin-1-yl)propyl)) carboxamidopyridine hydrochloride hydrate], the melting point is 209 to 214 °C (dec.).

With `CC1=C(C(N)=O)C(c2ccc([N+](=O)[O-])cc2)C(C(=O)NCCN2CCC(c3ccccc3)(c3ccccc3)CC2)=C(C)N1` (centres unmarked) (as salt: hydrochloride) (hydrate or solvate) [Example 54, 5-Carboxamide-1,4-dihydro-2,6-dimethyl-4-(4-nitrophenyl)-3-{N-[2-(4,4-diphenylpiperidin-1-yl)ethyl]}carboxamidopyridine hydrochloride hydrate], the melting point was in the range of 193 to 194 °C.
